Test results reported in the supplement of paper PMC10307832.

Tests used:
Experiment in all cases: relative viability (nuclei count vs DMSO), 5 days (fraction); higher = more cells survive
[1] = compound: C1=CC=C2C(=C1)C=CC(=C2SSC3=C(C=CC4=CC=CC=C43)O)O [IPA-3] + CC(C)C[C@H](NC(=O)[C@H](Cc1ccccc1)NC(=O)c1cnccn1)B(O)O [Bortezomib] (partner 0.002 µM)
Outline: (§1)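 One day after seeding in 1536-well plates, lung cancer cell lines were dosed by pin tool. Dosing was either single-drug or a fixed anchor-drug dose plus five library-drug doses (not always all listed) in √10 steps. After 5 days, nuclei were stained in one fix-and-stain step and counted on 4× images, and relative viability is the nuclei count of treated wells over that of vehicle wells, given as the median of duplicate plates.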

[2] = compound: C1=CC=C2C(=C1)C=CC(=C2SSC3=C(C=CC4=CC=CC=C43)O)O [IPA-3] + C[C@]1(O)C[C@@H](c2nc(-c3ccc4ccc(-c5ccccc5)nc4c3)c3c(N)nccn32)C1 [Linsitinib] (partner 1 µM)
Outline: as §1

[3] = compound: Cc1ccc(-n2nc(C(C)(C)C)cc2NC(=O)Nc2ccc(OCCN3CCOCC3)c3ccccc23)cc1 [Doramapimod] + Nc1nc2[nH]cc(CCc3ccc(C(=O)N[C@@H](CCC(=O)O)C(=O)O)cc3)c2c(=O)[nH]1 [Pemetrexed] (partner 0.2 µM)
Outline: as §1

[4] = compound: Cn1c(Nc2ccc(C(F)(F)F)cc2)nc2cc(Oc3ccnc(-c4ncc(C(F)(F)F)[nH]4)c3)ccc21 [RAF265] + COc1cccc2cc(-c3nc([C@H]4CC[C@H](C(=O)O)CC4)n4ncnc(N)c34)[nH]c12 [OSI-027] (partner 0.5 µM)
Outline: as §1

| Cell Line | relative viability ([1]; first compound 0.2 µM) | relative viability ([1]; first compound 0.6325 µM) | relative viability ([1]; first compound 2 µM) | relative viability ([1]; first compound 6.325 µM) | relative viability ([1]; first compound 20 µM) | relative viability ([2]; first compound 0.2 µM) | relative viability ([2]; first compound 0.6325 µM) | relative viability ([2]; first compound 2 µM) | relative viability ([2]; first compound 6.325 µM) | relative viability ([2]; first compound 20 µM) | relative viability ([3]; first compound 0.02 µM) | relative viability ([3]; first compound 0.06325 µM) | relative viability ([3]; first compound 0.2 µM) | relative viability ([3]; first compound 0.6325 µM) | relative viability ([3]; first compound 2 µM) | relative viability ([4]; first compound 0.01 µM) | relative viability ([4]; first compound 0.03162 µM) | relative viability ([4]; first compound 0.1 µM) | relative viability ([4]; first compound 0.3162 µM) | relative viability ([4]; first compound 1 µM) |
| --- | --- | --- | --- | --- | --- | --- | --- | --- | --- | --- | --- | --- | --- | --- | --- | --- | --- | --- | --- | --- |
| NCI-H1792 | 1.1 | 0.928 | 1.08 | 0.895 | 1.16 | 0.626 | 0.449 | 0.693 | 0.518 | 0.666 | 0.869 | 0.761 | 0.707 | 0.743 | 0.651 | 0.681 | 0.691 | 0.72 | 0.444 | 0.25 |
| NCI-H1915 | 1.15 | 0.974 | 0.952 | 0.971 | 1.09 | 1.12 | 1.13 | 1.11 | 1.08 | 1.09 | 0.452 | 0.464 | 0.498 | 0.699 | 0.419 | 0.674 | 0.492 | 0.339 | 0.217 | 0.176 |
| NCI-H1975 | 0.373 | 0.375 | 0.387 | 0.421 | 0.481 | 1.06 | 1.01 | 1.02 | 1.03 | 1.09 | 0.305 | 0.276 | 0.304 | 0.293 | 0.282 | 0.682 | 0.601 | 0.348 | 0.261 | 0.178 |
| NCI-H1993 | 1.04 | 1.14 | 1.14 | 1.1 | 1.21 | 0.707 | 0.688 | 0.761 | 0.782 | 0.612 | 0.627 | 0.517 | 0.504 | 0.658 | 0.558 | 0.539 | 0.583 | 0.552 | 0.579 | 0.543 |
| NCI-H2009 | 1.27 | 0.95 | 1.09 | 0.943 | 0.715 | 1.26 | 1.17 | 1.24 | 1.13 | 1.18 | 1.03 | 1.04 | 1.06 | 1.01 | 1 | 0.581 | 0.414 | 0.328 | 0.365 | 0.318 |
| NCI-H2023 | 1.19 | 0.9 | 1.05 | 1.17 | 1.11 | 0.85 | 0.681 | 0.841 | 0.735 | 0.921 | 0.215 | 0.219 | 0.226 | 0.259 | 0.215 | 0.387 | 0.358 | 0.33 | 0.252 | 0.318 |
| NCI-H2085 | 1.19 | 0.99 | 1.01 | 0.937 | 1.27 | 0.923 | 0.954 | 0.856 | 0.992 | 1.21 | 0.938 | 0.972 | 0.926 | 1.07 | 0.657 | 0.948 | 0.68 | 0.841 | 0.552 | 0.83 |
| NCI-H2087 | 1.04 | 0.796 | 0.828 | 0.749 | 0.838 | 1.1 | 1.05 | 0.925 | 0.86 | 0.995 | 0.589 | 0.646 | 0.597 | 0.573 | 0.61 | 0.653 | 0.426 | 0.426 | 0.193 | 0.334 |
| NCI-H2126 | 1.19 | 1.11 | 1.13 | 1.11 | 1.19 | 0.74 | 0.659 | 0.7 | 0.768 | 0.812 | 0.69 | 0.667 | 0.605 | 0.667 | 0.642 | 0.77 | 0.724 | 0.718 | 0.582 | 0.437 |
| NCI-H2228 | 1.24 | 1.04 | 1.07 | 1.15 | 0.855 | 0.706 | 0.857 | 0.642 | 0.715 | 0.887 | 0.339 | 0.354 | 0.322 | 0.393 | 0.308 | 0.499 | 0.476 | 0.344 | 0.184 | 0.121 |
| NCI-H2347 | 0.916 | 1.01 | 1.12 | 0.937 | 1.3 | 1.02 | 0.903 | 0.879 | 0.947 | 0.972 | 0.42 | 0.443 | 0.444 | 0.436 | 0.376 | 0.418 | 0.341 | 0.44 | 0.35 | 0.278 |
| NCI-H2405 | 1.02 | 0.944 | 1.02 | 0.963 | 1.02 | 0.953 | 0.923 | 0.936 | 0.912 | 1.03 | 1.13 | 1.13 | 1.02 | 1.18 | 1.01 | 0.601 | 0.626 | 0.621 | 0.611 | 0.366 |
| NCI-H3122 | 0.994 | 1.01 | 1.03 | 1.13 | 0.938 | 1.05 | 1.01 | 0.961 | 1.08 | 1.05 | 0.197 | 0.207 | 0.187 | 0.207 | 0.196 | 0.971 | 1.1 | 0.948 | – | 0.42 |
| PC-3 [JPC-3] | 0.92 | 0.885 | 0.786 | 0.824 | 0.873 | 0.965 | 0.904 | 0.977 | 0.994 | 0.922 | 1.27 | 1.37 | 1.24 | 0.933 | 1.03 | 0.84 | 0.655 | 0.746 | – | 0.567 |
| PC-14 | 1.09 | 0.79 | 0.914 | 0.805 | 1.04 | 0.945 | 0.96 | 1.01 | 0.922 | 1.09 | 0.129 | 0.128 | 0.134 | 0.148 | 0.109 | 0.813 | 0.734 | 0.787 | – | 0.48 |
| RERF-LC-KJ | 1.33 | 1.36 | 1.12 | 1.25 | 1.18 | 0.965 | 0.876 | 0.875 | 0.811 | 1.01 | 0.471 | 0.457 | 0.474 | 0.367 | 0.501 | 0.548 | 0.52 | 0.423 | 0.349 | 0.381 |
| SK-LU-1 | 1.14 | 1.21 | 1.09 | 1.19 | 1.62 | 1.44 | – | 1.27 | 0.893 | 1.11 | 1 | 0.937 | 0.964 | 0.863 | 0.946 | 0.349 | 0.254 | 0.224 | 0.232 | 0.193 |
| SW 1573 | 1.18 | 1.04 | 1.36 | 1.13 | 1.25 | 1.07 | 0.921 | 0.682 | 0.833 | 0.843 | 0.772 | 0.794 | 0.773 | 0.938 | 0.721 | 0.697 | 0.521 | 0.418 | 0.347 | 0.249 |
